Patent US20260174682A1, “GAMMA-AMINOBUTYRIC ACID DERIVATIVE COMPRISING POLYCYCLIC STRUCTURE, METHOD FOR PREPARING SAME, AND USE THEREOF” (ZHONGSHAN INSTITUTE FOR DRUG DISCOVERY, SIMM, CAS., priority 2022, published 2026)

Legend:
[1] = Pharmacokinetic test on rats; type: in vivo, rat; conditions: male SD rats; for t1/2: data based on free base
Protocol: Male SD rats were fasted for 12 h before the test and then allowed to drink water freely. The compound (+)—I-3 p-toluenesulfonate or (+)—I-4 p-toluenesulfonate of the present application was dissolved with a 10% distilled water solution of 1,2-propanediol and then administered orally or intravenously to the male SD rats, with 3 rats in each group. At 15 min, 30 min, 1 hour, 2 hours, 3 hours, 4 hours, 6 hours, 8 hours and 24 hours after the oral administration or at 5 min, 15 min, 30 min, 1 hour, 2 hours, 3 hours, 4 hours, 6 hours, 8 hours and 24 hours after the intravenous administration, 0.2 mL of blood was taken from retroocular venous plexuses, placed in an EDTA-K2 test tube, centrifuged at 11,000 rpm for 5 min to separate plasma, and frozen in a refrigerator at −20° C. The concentration of a drug prototype was determined by HPLC-ESI-MS according to a verified method, and pharmacokinetic parameters were calculated by WinNonLin.

motor functions of rats = assay: Rotarod test of impact on motor functions of rats; conditions: male SD rats; for impact on rotarod behaviors of the rats: gavage 10 mg/kg (calculated by free base); for impact on rotarod behaviors of the rats / impact on rotarod behaviors of the rats (impacted proportion): FIG. 7; for impact on rotarod behaviors of the rats (impacted proportion): gavage 30 mg/kg (calculated by free base)
Protocol: A negative vehicle control, a positive drug control group (pregabalin, (PGB), 10 mg/kg, 30 mg/kg) were set, and a test group (including (+)—I-3 p-toluenesulfonate at 10 mg/kg (calculated by free base), (+)—I-4 p-toluenesulfonate at 10 mg/kg (calculated by free base), (+)—I-3 p-toluenesulfonate at 30 mg/kg (calculated by free base) and (+)—I-4 p-toluenesulfonate at 30 mg/kg (calculated by free base)) were set. Male SD rats with the body weight of 200-250 g were selected, with 10 animals in each administration group. AYLS-31A fatigue rota-rod (Shanghai Xinruan Information Technology Co., Ltd.) was used as rotarod test equipment, and a rotation speed was set at a constant speed of 6 rpm. A screening test was carried out on the first day. Tail tips of the rats were pinched, placed on the rotarod, and released the same after the rats maintained balance on the rotarod and moved along with the rotarod. The falling number of the rats within the next 1 min was recorded and counted. The rats that fell for 3 times within 1 min were excluded, which were not used for subsequent drug evaluation. A drug evaluation test was carried out on the second day. The rats were fasted for 8 h before the test, then a rotarod test was carried out once to serve as a time point (BL) before administration, and then administration was performed by gavage. […] The falling number of the rats within 1 min was recorded and counted. The rats falling for 3 times within one min were regarded as having “motor function impairments” caused by drug toxicity. The “motor function impairment” degree (rotarod fall) of each administration group at a specific time point was calculated as a proportion of a number of the animals with “motor function impairments” in the group to a total number of the animals in the group.
The rotarod test is a classic test for measuring the damage of compounds to motor functions of animals.

[2] = tested on: Sprague Dawley (SD) rat spared nerve injury (SNI) model; assay: Analgesic effect in rat spared nerve injury (SNI) chronic neuropathic pain model; type: in vivo; conditions: SNI rats
Protocol: Establishment of the SNI model: Surgery was performed according to an aseptic operation method, and various surgical instruments, including scalpels, tweezers, suture needles/threads, surgical cotton, etc., were disinfected before the surgery. Animals were anesthetized by intraperitoneal injection of a Zoletil™ 50 solution at 50 mg/kg and then placed in lateral decubitus positions. After hair in surgical areas of lower bodies of animals was shaved, the animals were disinfected alternately with iodophor and 75% alcohol. The skin was cut at upper edges of left hind limbs, muscles were bluntly separated to expose a sciatic nerve trunk and 3 branches thereof, i.e., a tibial nerve, a common peroneal nerve and a sural nerve. The tibial nerve and the common peroneal nerve were ligated and cut, and the sural nerve was preserved and maintained intact. After the surgery, wounds were sutured layer by layer, the animals were administered with 25% ampicillin (1 mL/kg) through intraperitoneal injection to prevent infection, and routine nursing was performed. In sham group, only the sciatic nerve and the branches thereof were exposed, the nerves were not ligated and cut, and other operations were the same as those in the model group. Detection of a mechanical pain threshold: A Von-frey test fiber was used to detect the mechanical pain threshold of the sole of an operative side of each animal on day 1, day 3 and day 7 after the surgery, respectively. An “up-and-down” method was used as a method of detecting the mechanical pain threshold at the stimulation intensity of 0.4, 0.6, 1, 2, 4, 6, 8, and 15 g. During the test, the test fiber was used to vertically stimulate the site, close to an outer side, in the sole center of the left hind paw of a rat for 6-8 seconds each time at an interval of 5 seconds. A pain response was shown as an obvious paw withdrawal, paw licking, or paw lifting behavior of the animals during each test. From day 11 after the surgery, the animals were placed in an experimental environment for adaptation, wherein the adaptation was performed continuously for 15 min per day for 3 days. On day 13, a basic value of mechanical pain hypersensitivity was detected after the adaptation was completed. The mechanical pain hypersensitivity was expressed by a 50% paw-withdrawal threshold (PWT) according to a calculation formula of 50% PWT (g)=10^xf+kδ, wherein xf is a log value of a fiber test force, k is a tabular value, and δ is an average spacing of the log value of the fiber test force.
Pharmacodynamic evaluation: According to basic threshold detection results on day 13 after the surgery, the animals in the model group without the mechanical pain hypersensitivity, that is, the PWT was greater than 4 g, were excluded, and the other successfully modeled animals were used for a formal test. On day 14 after the surgery, various compound to be tested were newly formulated. Pregabalin was directly dissolved with 0.9% sodium chloride at a dose of 30 mg/kg to obtain a solution at a desired concentration. (±)—I-7, (±)—I-3 and (±)—I-4 p-toluenesulfonate were also completely dissolved with a 0.9% sodium chloride solution at a dose of 30 mg/kg (calculated by free base). The successfully modeled animals were randomly divided into 5 groups with 8 animals in each group. In addition, 7 animals were selected in the sham group. […] The mechanical pain hypersensitivity response of the left hind paw was detected at 1 h, 2 h, 4 h, 6 h, 8 h, 10 h, and 24 h after the administration. Evaluation was performed by using a blind method, and a detection method was the same as above. An area under a mechanical pain threshold-time curve (AUC) was calculated using GraphPad Prism Version 8.0.1 software.

[3] = gavage vs intravenous injection
[4] = intravenous injection, 1.10 / 1.09 mg/kg
[5] = oral gavage 10 mg/kg (calculated by free base), from AUC of mechanical pain threshold-time curve to 24 h

Compound	F (%) calculated based on AUC0-t [1, 3]	F (%) calculated based on AUC0-∞ [1, 3]	t1/2 ([1]; gavage, 2.74 mg/kg ((+)-I-3) / 2.73 mg/kg ((+)-I-4))	AUC0-t ([1]; gavage, 2.74 / 2.73 mg/kg)	AUC0-∞ ([1]; gavage, 2.74 / 2.73 mg/kg)	Cmax ([1]; gavage, 2.74 / 2.73 mg/kg)	MRT0-∞ ([1]; gavage, 2.74 / 2.73 mg/kg)	Tmax ([1]; gavage, 2.74 / 2.73 mg/kg)	t1/2 ([1]; intravenous injection, 1.10 mg/kg ((+)-I-3) / 1.09 mg/kg ((+)-I-4))	AUC0-t [1, 4]	AUC0-∞ [1, 4]	MRT0-∞ [1, 4]	impact on rotarod behaviors of the rats (motor functions of rats)	impact on rotarod behaviors of the rats (impacted proportion) (motor functions of rats)	area under the mechanical pain threshold-time curve compared with the vehicle control group ([2]; oral gavage 10 mg/kg (calculated by free base))	maximum possible effect (MPE) [2, 5]	time of maximum impact on the rotarod behaviors after the administration (motor functions of rats; gavage 30 mg/kg)	maximum possible effect (% MPE) ([2]; oral gavage 30 mg/kg (calculated by free base), from AUC of mechanical pain threshold-time curve to 24 h)
Cc1ccc(S(=O)(=O)O)cc1.NCC1(CC(=O)O)CC2C3C=CC(C3)C21 (single isomer, unassigned; (+)) [(+)-I-4 p-toluenesulfonate]	110.25% (calculated	110.36% (calculated	1.08 h	7290 ng·h/mL	7380 ng·h/mL	2350 ng/mL	2.38 h	1 h	0.94 h	2640 ng·h/mL	2670 ng·h/mL	1.63 h	no significant impact	smaller than that in the PGB group	significantly improved	69.09%	–	–
CC(C)C[C@H](CN)CC(=O)O [Pregabalin]	–	–	–	–	–	–	–	–	–	–	–	–	no significant impact	obvious toxic responses	–	23.04%	4 h	110.90%
